The text below walks through data of patent US4011328A, “Derivatives of pyridine-3-acetic acid, process for their preparation and applications thereof” (SERDEX - Societe d'Etudes, de Recherches, de Diffusion et …, priority 1973, dated 1977).

Common to all, as to assay type: in vivo
For test [1], the system named is 2-phenyl-1,4-benzoquinone-induced stretching of the rear feet and torsion of the trunk. The test is described as follows: Siegmund test, analgesic power: phenylbenzoquinone-induced stretchings/torsions. Conditions: Mus musculus, ip; mice; substance given 1 hour before intraperitoneal phenylbenzoquinone; observed 5th-10th minute. How it is done: The intraperitoneal injection of 0.25 ml of a hydroalcoholic solution of 2-phenyl-1,4-benzoquinone at a concentration of 0.02% produces in mice a particular syndrom characterized by the stretching of the rear feet and the torsion of the trunk.
The test is carried out on homogeneous groups of 20 to 30 mice with an average weight of 20 g.
The substance to be studied is administered to them at the time "0." One hour later the phenylbenzoquinone is administered intraperitoneally. The animals are observed individually for 5 minutes, between the 5th and 10th minute following the injection of the phenyl benzoquinone. The number of stretchings performed by each animal during the observation period is noted.
The percentage of activity of the substance is calculated by comparing the number of torsions performed by the animals and those performed by pilot animals.

Test [2] concerns carragheen-induced localized oedema. The test can be described thus: Acute oedema with carragheen, anti-inflammatory power. Conditions: Rattus norvegicus, po; male rats; buccally 1 hour before carragheen; oedema 3 hours after carragheen. Here is the method: (§1) b. Anti-inflammatory power.
1. Acute oedema with carragheen.
(Winster C. A., Risley R. A., Nuss G. W. -- Proc.Soc.Biol. Med.1962,3,544-7).
The injection, under the arch of the rat's foot, of 0.05 ml of an aqueous gel with 1% carragheen produces a localized oedema which can be measured with an electric plethysmometer of the mercury type.
The percentage of inflammation can be calculated by measuring the volume of the […] foot before and 3 hours after the carragheen injection.
The treatment is given buccally, 1 hour before the carragheen.
The test is carried out on homogeneous groups of ten male rats of 180 ± 10 g.
For each animal the oedema is measured as follows: [formula]
When the percentage of oedema is known for the pilot group, the protection observed under the effect of the substance tested is deducted therefrom for the treated groups.

For test [3], the system named is Turfyl nicotinate (Trafuril)-induced erythema. The test is described as follows: Erythema with Turfyl nicotinate (Trafuril), anti-inflammatory power. Conditions: Cavia porcellus, po; male albino guinea-pigs; buccally 1 hour before test; result at the end of 5 minutes. Here is the method:
as §1
2. Erythema with Turfyl nicotinate(Trafuril).
The NAINING method is used (Br.jl.Pharmacol. 1963-21-104-12), slightly modified:
The test is carried out on homogeneous groups of six to 12 male albino guinea-pigs weighing 300-400 g, the skin of the back having been carefully plucked the day before.
On the day of the test an antibiogramme disc saturated with an alcoholic solution at 5% of Turfyl nicotinate is applied to the lumbar region for 1 minute.
The result is observed at the end of 5 minutes.
The results are recorded on an "all or nothing" basis, according to which an erythema appears at the place in which the disc was applied.
The treatment is administered buccally 1 hour before the test, with a uniform volume of 1 ml per kg of body weight; the products are placed in homogeneous suspension by the aid of 3% of gum arabic.
The pilot animals are given an equal volume of vehicle.
The percentage of erythema produced in the treated animals is compared with that of the pilot group observed at the same time.

As usually defined, the ED50 is the midpoint of the dose-response relation. A low value points to greater potency. With `COc1ccc(-c2nc(C)c(CC(=O)O)cc2-c2ccc(Cl)cc2)cc1` [Example 3], the ED50 in test [1] was determined as 0.9 mg/kg; in test [2], 28 mg/kg; in test [3], 5.2 mg/kg.
On the same counts, the results for `Cc1ccc2c(c1)-c1nc(C)c(CC(=O)O)cc1CO2` [Example 1] are 150 mg/kg, 16 mg/kg and 78 mg/kg.
